Read-outs that look alike come from different tables or passages of the source.
Assays:
[1] = biological target: T1, RXRα (Homo sapiens, UniProt P19793); assay: RXR binding, competition with tritiated retinoid; conditions: read-out: RXR Binding alpha
T1 sequence (P19793 1-462): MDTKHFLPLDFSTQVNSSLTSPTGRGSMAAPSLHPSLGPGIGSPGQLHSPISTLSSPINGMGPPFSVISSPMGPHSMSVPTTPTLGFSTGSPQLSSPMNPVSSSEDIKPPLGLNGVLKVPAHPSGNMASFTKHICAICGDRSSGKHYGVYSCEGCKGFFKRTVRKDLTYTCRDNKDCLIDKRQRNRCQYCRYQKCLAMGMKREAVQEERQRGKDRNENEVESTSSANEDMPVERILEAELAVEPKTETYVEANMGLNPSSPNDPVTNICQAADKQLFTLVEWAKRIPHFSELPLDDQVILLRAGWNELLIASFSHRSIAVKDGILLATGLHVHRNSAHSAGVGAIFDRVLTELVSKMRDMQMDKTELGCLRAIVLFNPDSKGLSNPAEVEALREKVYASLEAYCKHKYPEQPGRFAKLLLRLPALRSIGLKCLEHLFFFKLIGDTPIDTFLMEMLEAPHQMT
Source text: In addition to the cotransfection data, the binding of selected compounds of the present invention to the RAR and RXR receptors was also investigated according to the methodology described in M. F., Boehm, et al., “Synthesis and Structure-Activity Relation-ships of Novel Retinoid X Receptor Selective Retinoids”, 37 J. Med. Chem., 2930 (1994); M. F. Boehm, et al., “Synthesis of High Specific Activity [^3H]-9-cis Retinoic Acid and Its Application for Identifying Retinoids with Unusual Binding Properties”, 37 J. Med. Chem., 408 (1994), and E. A. Allegretto, et al., “Characterization and Comparison of Hormone-Binding and Transactivation Properties of Retinoic Acid and Retinoid X Receptors Expressed in Mammalian Cells and Yeast”, 268 J. Biol. Chem., 22625 (1993), the disclosures of which are herein incorporated by reference.
Non-specific binding was defined as that binding remaining in the presence of 500 nM of the appropriate unlabelled compound. At the end of the incubation period, bound ligand was separated from free. The amount of bound tritiated retinoid was determined by liquid scintillation counting of an aliquot (700 μL) of the supernatant fluid or the hydroxylapatite pellet.
After correcting for non-specific binding, IC50 values were determined. The IC50 value is defined as the concentration of competing ligand needed to reduce specific binding by 50%. The IC50 value was determined graphically from a log-logit plot of the data. The Ki values were determined by application of the Cheng-Prussof equation to the IC50 values, the labeled ligand concentration and the Kd of the labeled ligand.

[2] = biological target: T2, RXRα:RXRα homodimer (Homo sapiens, UniProt P19793); assay: RXR homodimer co-transfection assay (antagonist) in CV-1 cells; format: cell-based; conditions: for IC50: in the presence of 3.2×10^−8 M LGD1069, read-out: RXR Antagonist CTF IC50
T2 sequence (P19793 1-462): T1 sequence (P19793 1-462)
Source text: In the co-transfection assay, cloned cDNA for one or more IRs (e.g. human RARα, RXRα, or PPARγ), alone or in combination (i.e. for heterodimer assays) under the control of a constitutive promoter (e.g., the SV 40, RSV or CMV promoter) is introduced by transfection (a procedure to introduce exogenous genes into cells) into a background cell substantially devoid of endogenous IRs. These introduced gene(s) direct the recipient cells to make the IR protein(s) of interest. A further gene is also introduced (co-transfected) into the same cells in conjunction with the IR gene(s). This further gene, comprising the cDNA for a reporter protein, such as firefly luciferase (LUC), controlled by an appropriate hormone responsive promoter containing a hormone response element (HRE). This reporter plasmid functions as a reporter for the transcriptional-modulating activity of the target IR(s). Thus, the reporter acts as a surrogate for the products (mRNA then protein) normally expressed by a gene under control of the target receptor(s) and their native hormone(s). The co-transfection assay can detect small molecule agonists or antagonists, including partial agonists and antagonist, of target IRs. Exposing the transfected cells to an agonist ligand compound increases reporter activity in the transfected cells. This activity can be conveniently measured, e.g., by increasing luciferase production and enzymatic activity, which reflects compound-dependent, IR-mediated increases in reporter transcription. […] Increasing concentrations of an antagonist will decrease the reporter signal (e.g., luciferase production). The co-transfection assay is therefore useful to detect both agonists and antagonists of specific IRs. Furthermore, it determines not only whether a compound interacts with a particular IR, but whether this interaction mimics (agonizes) or blocks (antagonizes) the effects of native or synthetic regulatory molecules on target gene expression, as well as the specificity and strength of this interaction. […] To determine agonist and antagonist activity of the modulator compounds of the present invention, the CV-1 cells were transiently transfected by calcium phosphate coprecipitation according to the procedure of Berger et al., 41 J. Steroid Biochem. Mol. Biol., 733 (1992) with the receptor expressing plasmid […] et al., 345 Nature, 224 (1990), the disclosures of which are herein incorporated by reference at a concentration of 10 ng/well. The receptor expression plasmid was cotransfected along with a reporter plasmid at 50 ng/well, the internal control plasmid pRS-β-Gal at 50 ng/well and filler DNA, pGEM, at 90 ng/well. The reporter plasmid […], which contains an RXRE (retinoid X receptor response element, as described in Mangelsdorf et al., 66 Cell, 555 (1991), the disclosure of which is herein incorporated by reference, was used in transfections for the RXR homodimer assay. This reporter plasmid contains the cDNA for firefly luciferase (LUC) under the control of a promoter containing the RXR response element. As noted above, pRS-β-Gal, coding for constitutive expression of E. coli β-galactosidase (β-Gal), was included as an internal control for evaluation of transfection efficiency and compound toxicity. Six hours after transfection, media was removed and the cells were washed with phosphate-buffered saline (PBS). Media containing compounds of the present invention in concentrations ranging from 10^-10 to 10^-5 M were added to the cells. […] Ligand Pharmaceuticals, Inc.), compounds with known agonist activity on RXRs, were added at similar concentrations to provide a reference point for analysis of the agonist activity of the compounds of the present invention. […] Ligand Pharmaceuticals, Inc.). Retinoid purity was established as greater than 99% by reverse phase high-performance liquid chromatography. Retinoids were dissolved in dimethylsulfoxide for use in the transcriptional activation assays. Two to three replicates were used for each sample. […]

[3] = CV-1 cells, antagonist efficacy as % of maximal inhibition, read-out: RXR Antagonist CTF % Efficacy

Compound	Ki [1] [nM]	Emax [2, 3] [%]	IC50 ([2]; CV-1 cells) [nM]	Emax ([2]; CV-1, read-out: RXR Antagonist CTF % Efficacy) [%]
C/C(=C/C(F)=C/C(C)=C/C(=O)O)c1cc(C(C)(C)C)cc(C(C)(C)C)c1OCC(F)F [Example 2, 7-[3,5-Di-tert-butyl-2-(2,2-difluoroethoxy)-phenyl]-5-fluoro-3-methyl-octa-2,4,6-trienoic acid]	8.2	100	8710	
C/C(=C/C=C(F)/C(C)=C/C(=O)O)c1cc(C(C)(C)C)cc(C(C)(C)C)c1OCC(F)F [Example 1, 7-[3,5-di-tert-butyl-2-(2,2-difluoroethoxy)-phenyl]4-fluoro-3-methyl-octa-2,4,6-trienoic acid]	4.8	100	4840	
CCOc1c(\C(=C/C=C/C(C)=C/C(=O)O)C(F)(F)F)cc(C(C)(C)C)cc1C(C)(C)C [Example 5, (2E,4E,6E)-3-methyl-7-(2-ethoxy-3,5-di-tert-butylphenyl)-8,8,8-trifluoroocta-2,4,6-trienoic acid]	38		38	30
CCCCOc1c(\C(C)=C/C=C/C(=C\C(=O)O)C(F)(F)F)cc(C(C)C)cc1C(C)C [Example 4, (2E,4E,6Z)-7-(2-Butoxy-3,5-diisopropylphenyl)-3-trifluoromethyl-octa-2,4,6-trienoic acid]	9110	29		
CCCCOc1c(\C(C)=C/C=C/C(=C/C(=O)O)C(F)(F)F)cc(C(C)C)cc1C(C)C [Example 3, (2Z,4E,6Z)-7-(2-Butoxy-3,5-diisopropylphenyl)-3-trifluoromethyl-octa-2,4,6-trienoic acid]	1300	83	921	
